In brackets after ≈: the same amount, converted by molar mass.
How the values were obtained:
Type in all cases: cell-based
[1] = test system: Aspergillus niger IFO 6342; experiment: Antifungal activity, agar-dilution MIC, organism No. 30; conditions: Aspergillus niger, IFO6342; Organism No. 30, bouillon-agar; read-out: Minimum Inhibitory Concentration
In short: (§1)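 MICs were determined by agar dilution on bouillon-agar medium. The value is the minimum concentration of specimen inhibiting growth, expressed as μg/ml of culture medium.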

[2] = test system: Salmonella paratyphi-A 1015; experiment: Antibacterial activity, agar-dilution MIC, organism No. 10; conditions: Salmonella enterica, PARATYPHI, read-out: Minimum Inhibitory Concentration
In short: as §1

[3] = test system: Pseudomonas aeruginosa PAO 1; experiment: Antibacterial activity, agar-dilution MIC, organism No. 17; conditions: Pseudomonas aeruginosa, PAO1; Organism No. 17, bouillon-agar; read-out: Minimum Inhibitory Concentration
In short: as §1

[4] = test system: Staphylococcus aureus Terajima; experiment: Antibacterial activity, agar-dilution MIC, organism No. 2; conditions: Staphylococcus aureus; Organism No. 2, bouillon-agar; read-out: Minimum Inhibitory Concentration
In short: as §1

[5] = test system: Proteus mirabilis IFO 3849; experiment: Antibacterial activity, agar-dilution MIC, organism No. 19; conditions: Proteus mirabilis, IFO3849; Organism No. 19, bouillon-agar; read-out: Minimum Inhibitory Concentration
In short: as §1

[6] = test system: Streptococcus faecium IFO 3826; experiment: Antibacterial activity, agar-dilution MIC, organism No. 27; conditions: Enterococcus faecium, IFO3826; Organism No. 27, bouillon-agar; read-out: Minimum Inhibitory Concentration
In short: as §1

[7] = test system: Enterobacter aerogenes ATCC 13048; experiment: Antibacterial activity, agar-dilution MIC, organism No. 23; conditions: Klebsiella aerogenes, ATCC13048; Organism No. 23, bouillon-agar; read-out: Minimum Inhibitory Concentration
In short: as §1

[8] = test system: Proteus rettgeri IFO 3850; experiment: Antibacterial activity, agar-dilution MIC, organism No. 22; conditions: Providencia rettgeri, IFO3850; Organism No. 22, bouillon-agar; read-out: Minimum Inhibitory Concentration
In short: as §1

[9] = test system: Bacillus subtilis ATCC 6633; experiment: Antibacterial activity, agar-dilution MIC, organism No. 14; conditions: Bacillus subtilis, ATCC6633; Organism No. 14, bouillon-agar; read-out: Minimum Inhibitory Concentration
In short: as §1

[10] = test system: Proteus morganii IFO 3848; experiment: Antibacterial activity, agar-dilution MIC, organism No. 18; conditions: Morganella morganii, IFO3848; Organism No. 18, bouillon-agar; read-out: Minimum Inhibitory Concentration
In short: as §1

[11] = test system: Staphylococcus aureus FDA 209PJc-1; experiment: Antibacterial activity, agar-dilution MIC, organism No. 1; conditions: Staphylococcus aureus, FDA209PJC1; Organism No. 1, bouillon-agar; read-out: Minimum Inhibitory Concentration
In short: as §1

[12] = test system: Klebsiella pneumoniae PCI-602; experiment: Antibacterial activity, agar-dilution MIC, organism No. 7; conditions: Klebsiella pneumoniae, PCI602; Organism No. 7, bouillon-agar; read-out: Minimum Inhibitory Concentration
In short: as §1

Proteus vulgaris OX-19 = experiment: Antibacterial activity, agar-dilution MIC, organism No. 20; conditions: Proteus vulgaris, OX19; Organism No. 20, bouillon-agar; read-out: Minimum Inhibitory Concentration
In short: as §1

Proteus vulgaris HX-19 = experiment: Antibacterial activity, agar-dilution MIC, organism No. 21; conditions: Proteus vulgaris, HX19; Organism No. 21, bouillon-agar; read-out: Minimum Inhibitory Concentration
In short: as §1

[13] = test system: Escherichia coli NIHJ-JC-2; experiment: Antibacterial activity, agar-dilution MIC, organism No. 5; conditions: Escherichia coli, NIHJJC2; Organism No. 5, bouillon-agar; read-out: Minimum Inhibitory Concentration
In short: as §1

[14] = test system: Candida albicans IAM 4905; experiment: Antifungal activity, agar-dilution MIC, organism No. 29; conditions: Candida albicans, IAM4905; Organism No. 29, bouillon-agar; read-out: Minimum Inhibitory Concentration
In short: as §1

[15] = test system: Pseudomonas aeruginosa IFO 3445; experiment: Antibacterial activity, agar-dilution MIC, organism No. 15; conditions: Pseudomonas aeruginosa, IFO3445; Organism No. 15, bouillon-agar; read-out: Minimum Inhibitory Concentration
In short: as §1

[16] = test system: Streptococcus pyogenes Cook; experiment: Antibacterial activity, agar-dilution MIC, organism No. 4; conditions: Streptococcus pyogenes; Organism No. 4, bouillon-agar; read-out: Minimum Inhibitory Concentration
In short: as §1

[17] = test system: Pseudomonas aeruginosa NCTC 10490; experiment: Antibacterial activity, agar-dilution MIC, organism No. 16; conditions: Pseudomonas aeruginosa, NCTC10490; Organism No. 16, bouillon-agar; read-out: Minimum Inhibitory Concentration
In short: as §1

[18] = test system: Mycoplasma pneumoniae IID817; experiment: Antimycoplasmal activity, MIC by phenol red colour change, organism No. 28; conditions: Mycoplasma, IID817; Organism No. 28, PPLO broth + 1% glucose, 37° C.; read-out: Minimum Inhibitory Concentration (MIC)
Method: Mycoplasma pneumoniae IID817 was used as the test microorganism in a culture medium prepared by adding 1% of glucose to "PPLO broth (manufactured by Difco Co.) liquid culture medium" at 37° C. with phenol red as an indicator, thereby culturing the test microorganism.

[19] = test system: Escherichia coli K12 C600 IAM 1264; experiment: Antibacterial activity, agar-dilution MIC, organism No. 6; conditions: Escherichia coli, IAM1264; Organism No. 6, bouillon-agar; read-out: Minimum Inhibitory Concentration
In short: as §1

[20] = test system: Serratia marcescens IAM 1184; experiment: Antibacterial activity, agar-dilution MIC, organism No. 13; conditions: Serratia marcescens, IAM1184; Organism No. 13, bouillon-agar; read-out: Minimum Inhibitory Concentration
In short: as §1

[21] = test system: Salmonella typhimurium IID 971; experiment: Antibacterial activity, agar-dilution MIC, organism No. 8; conditions: Salmonella enterica; Organism No. 8, bouillon-agar; read-out: Minimum Inhibitory Concentration
In short: as §1

[22] = test system: Staphylococcus aureus MS 353; experiment: Antibacterial activity, agar-dilution MIC, organism No. 3; conditions: Staphylococcus aureus, MS353; Organism No. 3, bouillon-agar; read-out: Minimum Inhibitory Concentration
In short: as §1

[23] = test system: Salmonella enteritidis G 14; experiment: Antibacterial activity, agar-dilution MIC, organism No. 12; conditions: Salmonella enterica, ENTERITIDIS; Organism No. 12, bouillon-agar; read-out: Minimum Inhibitory Concentration
In short: as §1

Enterobacter cloacae 963 = experiment: Antibacterial activity, agar-dilution MIC, organism No. 24; conditions: Enterobacter cloacae, 963; Organism No. 24, bouillon-agar; read-out: Minimum Inhibitory Concentration
In short: as §1

Salmonella typhi 901 = experiment: Antibacterial activity, agar-dilution MIC, organism No. 9; conditions: Salmonella enterica, TYPHI, read-out: Minimum Inhibitory Concentration
In short: as §1

[24] = test system: Salmonella shottmuelleri 8006; experiment: Antibacterial activity, agar-dilution MIC, organism No. 11; conditions: Salmonella, 8006; Organism No. 11, bouillon-agar; read-out: Minimum Inhibitory Concentration
In short: as §1

[25] = test system: Streptococcus pyogenes IFO 3340; experiment: Antibacterial activity, agar-dilution MIC, organism No. 26; conditions: Streptococcus pyogenes, IFO3340; Organism No. 26, bouillon-agar; read-out: Minimum Inhibitory Concentration
In short: as §1

[26] = test system: Micrococcus luteus ATCC 9341; experiment: Antibacterial activity, agar-dilution MIC, organism No. 25; conditions: Micrococcus luteus, ATCC9341; Organism No. 25, bouillon-agar; read-out: Minimum Inhibitory Concentration
In short: as §1

| Compound | MIC [1] [µg/mL] | MIC [2] [µg/mL] | MIC [3] [µg/mL] | MIC [4] [µg/mL] | MIC [5] [µg/mL] | MIC [6] [µg/mL] | MIC [7] [µg/mL] | MIC [8] [µg/mL] | MIC [9] [µg/mL] | MIC [10] [µg/mL] | MIC [11] [µg/mL] | MIC [12] [µg/mL] | MIC (Proteus vulgaris OX-19) [µg/mL] | MIC (Proteus vulgaris HX-19) [µg/mL] | MIC [13] [µg/mL] | MIC [14] [µg/mL] | MIC [15] [µg/mL] | MIC [16] [µg/mL] | MIC [17] [µg/mL] | MIC [18] [µg/mL] | also measured |
| --- | --- | --- | --- | --- | --- | --- | --- | --- | --- | --- | --- | --- | --- | --- | --- | --- | --- | --- | --- | --- | --- |
| [C-]#[N+]C12CC3(/C=C/C(=O)Nc4cccc(C(=O)OC)c4)OC3C1O2 (stereo not drawn) [compound 50] | 1.56 (≈ 4.78 µM) | 6.25 (≈ 19.2 µM) | > 200 | 1.56 (≈ 4.78 µM) | > 200 | 12.5 (≈ 38.3 µM) | > 200 | 6.25 (≈ 19.2 µM) | 6.25 (≈ 19.2 µM) | 1.56 (≈ 4.78 µM) | 0.2 (≈ 0.613 µM) | 0.39 (≈ 1.2 µM) | 1.56 (≈ 4.78 µM) | 0.1 (≈ 0.306 µM) | > 200 | 0.79 (≈ 2.42 µM) | > 200 | 200 (≈ 613 µM) | > 200 | < 0.2 | MIC [19]: > 200 µg/mL; MIC [20]: > 200 µg/mL; MIC [21]: 50 µg/mL (≈ 153 µM); MIC [22]: 0.39 µg/mL (≈ 1.2 µM); MIC [23]: 6.25 µg/mL (≈ 19.2 µM); MIC (Enterobacter cloacae 963): 200 µg/mL (≈ 613 µM); MIC (Salmonella typhi 901): 25 µg/mL (≈ 76.6 µM); MIC [24]: 1.56 µg/mL (≈ 4.78 µM); MIC [25]: 1.56 µg/mL (≈ 4.78 µM); MIC [26]: < 0.05 µg/mL |
| [C-]#[N+]C12CC3(/C=C/C(=O)Nc4ccc5c(c4)CCC5)OC3C1O2 (stereo not drawn) [compound 75] | 200 (≈ 649 µM) | 0.78 (≈ 2.53 µM) | > 200 | 1.56 (≈ 5.06 µM) | > 200 | 1.56 (≈ 5.06 µM) | > 200 | > 200 | 1.56 (≈ 5.06 µM) | 3.13 (≈ 10.2 µM) | 0.39 (≈ 1.26 µM) | 0.78 (≈ 2.53 µM) | 1.56 (≈ 5.06 µM) | 0.78 (≈ 2.53 µM) | > 200 | 200 (≈ 649 µM) | > 200 | > 200 | > 200 | < 0.2 | MIC [19]: > 200 µg/mL; MIC [20]: > 200 µg/mL; MIC [21]: > 200 µg/mL; MIC [22]: 0.78 µg/mL (≈ 2.53 µM); MIC [23]: > 200 µg/mL; MIC (Enterobacter cloacae 963): 200 µg/mL (≈ 649 µM); MIC (Salmonella typhi 901): > 200 µg/mL; MIC [24]: 1.56 µg/mL (≈ 5.06 µM); MIC [25]: 0.78 µg/mL (≈ 2.53 µM); MIC [26]: 200 µg/mL (≈ 649 µM) |
| [C-]#[N+]C12CC3(/C=C/C(=O)Nc4ccccc4OC)OC3C1O2 (stereo not drawn) [compound 55] | 12.5 (≈ 41.9 µM) | 12.5 (≈ 41.9 µM) | > 200 | 3.13 (≈ 10.5 µM) | > 200 | 200 (≈ 670 µM) | > 200 | > 200 | 25 (≈ 83.8 µM) | 6.25 (≈ 21 µM) | 1.56 (≈ 5.23 µM) | 0.39 (≈ 1.31 µM) | 6.25 (≈ 21 µM) | < 0.05 | 200 (≈ 670 µM) | 3.13 (≈ 10.5 µM) | > 200 | 200 (≈ 670 µM) | > 200 | < 0.2 | MIC [19]: 200 µg/mL (≈ 670 µM); MIC [20]: > 200 µg/mL; MIC [21]: 50 µg/mL (≈ 168 µM); MIC [22]: 0.78 µg/mL (≈ 2.61 µM); MIC [23]: 12.5 µg/mL (≈ 41.9 µM); MIC (Enterobacter cloacae 963): > 200 µg/mL; MIC (Salmonella typhi 901): 25 µg/mL (≈ 83.8 µM); MIC [24]: 3.13 µg/mL (≈ 10.5 µM); MIC [25]: 6.25 µg/mL (≈ 21 µM); MIC [26]: < 0.05 µg/mL |
| [C-]#[N+]C12CC3(/C=C/C(=O)OCC(=O)c4ccc(Br)cc4)OC3C1O2 (stereo not drawn) [Compound No. 4, p-bromophenacylβ-substituted acrylate] | 6.25 (≈ 16 µM) | < 0.05 | > 100 | 0.78 (≈ 2 µM) | > 200 | 12.5 (≈ 32 µM) | 100 (≈ 256 µM) | 100 (≈ 256 µM) | 12.5 (≈ 32 µM) | 100 (≈ 256 µM) | 0.4 (≈ 1.03 µM) | 6.25 (≈ 16 µM) | 0.39 (≈ 1 µM) | 0.39 (≈ 1 µM) | 6.25 (≈ 16 µM) | 1.56 (≈ 4 µM) | > 100 | 12.5 (≈ 32 µM) | > 100 | < 0.05 | MIC [19]: < 0.05 µg/mL; MIC [20]: > 100 µg/mL; MIC [21]: 6.25 µg/mL (≈ 16 µM); MIC [22]: 1.56 µg/mL (≈ 4 µM); MIC [23]: 3.13 µg/mL (≈ 8.02 µM); MIC (Enterobacter cloacae 963): 0.2 µg/mL (≈ 0.513 µM); MIC (Salmonella typhi 901): 3.13 µg/mL (≈ 8.02 µM); MIC [24]: < 0.05 µg/mL; MIC [25]: 6.25 µg/mL (≈ 16 µM); MIC [26]: < 0.05 µg/mL |
